System: SEM cells
Test: cell viability relative to DMSO control; higher = less cytotoxic
Settings: 48 h
Method in brief: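 Leukemia cells (NOMO1 or SEM, 500 cells/well; P12-Ichikawa, 1000 cells/well) were seeded in 5 μl in 1536-well plates after at least four passages of adaptation to each medium. They received library compounds in DMSO by pin dosing, 11 threefold points from 47 μM to 0.79 nM. Luminescence with CellTiter-Glo One was read after 48 h at 37°C. Viability is stated per plate relative to DMSO wells, with cell-free wells as background.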

[1] = RPMI 5 mM glucose + 10% FBS, 0.000781 µM
[2] = RPMI 5 mM glucose + 10% FBS, 0.00234 µM
[3] = RPMI 5 mM glucose + 10% FBS, 0.00702 µM
[4] = RPMI 5 mM glucose + 10% FBS, 0.0211 µM
[5] = RPMI 5 mM glucose + 10% FBS, 0.0632 µM
[6] = RPMI 5 mM glucose + 10% FBS, 0.19 µM
[7] = RPMI 5 mM glucose + 10% FBS, 0.569 µM
[8] = RPMI 5 mM glucose + 10% FBS, 1.71 µM
[9] = RPMI 5 mM glucose + 10% FBS, 5.12 µM
[10] = RPMI 5 mM glucose + 10% FBS, 15.4 µM
[11] = RPMI 5 mM glucose + 10% FBS, 46.1 µM
[12] = RPMI 5 mM glucose + 10% dialyzed FBS, 0.000781 µM
[13] = RPMI 5 mM glucose + 10% dialyzed FBS, 0.00234 µM
[14] = RPMI 5 mM glucose + 10% dialyzed FBS, 0.00702 µM
[15] = RPMI 5 mM glucose + 10% dialyzed FBS, 0.0211 µM
[16] = RPMI 5 mM glucose + 10% dialyzed FBS, 0.0632 µM
[17] = RPMI 5 mM glucose + 10% dialyzed FBS, 0.19 µM
[18] = RPMI 5 mM glucose + 10% dialyzed FBS, 0.569 µM
[19] = RPMI 5 mM glucose + 10% dialyzed FBS, 1.71 µM
[20] = RPMI 5 mM glucose + 10% dialyzed FBS, 5.12 µM
[21] = RPMI 5 mM glucose + 10% dialyzed FBS, 15.4 µM
[22] = RPMI 5 mM glucose + 10% dialyzed FBS, 46.1 µM

Structure (SMILES) | cell viability [1] [%] | cell viability [2] [%] | cell viability [3] [%] | cell viability [4] [%] | cell viability [5] [%] | cell viability [6] [%] | cell viability [7] [%] | cell viability [8] [%] | cell viability [9] [%] | cell viability [10] [%] | cell viability [11] [%] | cell viability [12] [%] | cell viability [13] [%] | cell viability [14] [%] | cell viability [15] [%] | cell viability [16] [%] | cell viability [17] [%] | cell viability [18] [%] | cell viability [19] [%] | cell viability [20] [%] | cell viability [21] [%] | cell viability [22] [%] | cell viability (HPLM + 10% dialyzed FBS, 0.000781 µM) [%] | cell viability (HPLM + 10% dialyzed FBS, 0.00234 µM) [%] | cell viability (HPLM + 10% dialyzed FBS, 0.00702 µM) [%] | cell viability (HPLM + 10% dialyzed FBS, 0.0211 µM) [%] | cell viability (HPLM + 10% dialyzed FBS, 0.0632 µM) [%] | cell viability (HPLM + 10% dialyzed FBS, 0.19 µM) [%] | cell viability (HPLM + 10% dialyzed FBS, 0.569 µM) [%] | cell viability (HPLM + 10% dialyzed FBS, 1.71 µM) [%] | cell viability (HPLM + 10% dialyzed FBS, 5.12 µM) [%] | cell viability (HPLM + 10% dialyzed FBS, 15.4 µM) [%] | cell viability (HPLM + 10% dialyzed FBS, 46.1 µM) [%]
CC(C)[C@H](C(=O)Nc1ccc(C(=O)NO)cc1)c1ccccc1 | 115 | 116 | 126 | 140 | 139 | 148 | 133 | 74.7 | 11.3 | 9.31 | 9.34 | 105 | 101 | 121 | 121 | 120 | 120 | 111 | 56.6 | 8.81 | 8.39 | 8.47 | – | – | – | – | – | – | – | – | – | – | –
Nc1cc(N2CCCCC2)nc(N)[n+]1[O-] | 100 | 125 | 108 | 110 | 106 | 116 | 121 | 78.9 | 122 | 58.2 | 120 | 115 | 132 | 114 | 116 | 120 | 129 | 108 | 79.8 | 135 | 83.9 | 133 | 98.9 | 122 | 115 | 112 | 124 | 120 | 121 | 75.6 | 124 | 61.5 | 127

From the supplement of paper PMC11451515
